Measured values published in patent publication US9616006B2, “Methods and compositions for treating dermatological diseases and conditions” (priority 2007, dated 2017).

Tests used:
IL-8 [1] = assay: TPA-induced IL-8 production in keratinocytes (ELISA); type: cell-based, human; details: 100 uM
IL-6 [2] = assay: UV-induced IL-6 production in keratinocytes (ELISA); type: cell-based, human; details: 100 uM
Procedure: (§1) In one study, various concentrations of DHE were added to culture medium and these media were placed on human fibroblast cell cultures (results shown in FIG. 1). Cells were either not induced or induced with UVB radiation to stimulate cytokine/PGE-2 production. At 24 hours after treatment, the cell culture medium was removed and assayed by ELISA methods for the expression of PGE-2, various cytokines and chemokines.
(§2) When similar experiments were carried out with human keratinocytes, DHE was again found to markedly suppress the UVR induction of PGE-2, with a concentration of 50 uM inhibiting the production of PGE-2 by over 60% (results shown in FIG. 2). […] Further, since PGE-2 is known to be a principal factor in the development of actinic keratosis and skin cancer, DHE can also be used in treating these conditions.
(§3) DHE and IE both have inhibitory effects on production of the inflammatory mediators in keratinocytes.

PGE2 [3] = assay: UV-induced PGE2 production in keratinocytes (ELISA); type: cell-based, human
Procedure: as §1, §2, §3

IL-6 [4] = assay: IL-1-induced IL-6 production in fibroblasts (ELISA); type: cell-based, human; details: Fibroblasts (IL-1); 100 uM
Procedure: as §1, with “Cells were either not induced or induced with UVB radiation to stimulate cytokine/PGE-2 production.” left out
(§4) DHE and IE both have inhibitory effects on the production of the inflammatory mediators in fibroblasts.

PGE2 [5] = assay: TPA-induced PGE2 production in keratinocytes (ELISA); type: cell-based, human; details: 100 uM
IL-8 [6] = assay: IL-1-induced IL-8 production in fibroblasts (ELISA); type: cell-based, human; details: Fibroblasts (IL-1); 100 uM
IL-8 [7] = assay: LPS-induced IL-8 production in monocytes; type: cell-based
Description: (§5) DHE and IE both have inhibitory effects on the production of the inflammatory mediators in monocytes.

IL-12 [8] = assay: LPS-induced IL-12 production in monocytes; type: cell-based; details: 100 uM
Description: as §5

collagen 1 mRNA = assay: Collagen mRNA in fibroblasts by RT-PCR; type: cell-based, human; details: fibroblast cell cultures treated 72 hours
Description: (§6) The presently claimed and disclosed inventive concept(s) further contemplates use of various DHE, IE and EV compositions and salts, esters, ethers, and derivatives thereof to mitigate the effects of aging on the skin. For all aging studies, normal human fibroblast cell cultures were used. These cells normally produce collagen, elastin and hyaluronic acid. As the skin ages, the fibroblasts in the dermis lose their ability to produce these three key components of skin, and the skin consequently loses elasticity, thickness and smooth texture. In addition, as fibroblasts age, they increase the expression of certain enzymes that destroy collagen and elastin. There are about 13 of these enzymes, collectively referred to as MMPs (matrix metalloproteinases). One of the principal MMPs, MMP-1, is responsible for collagen degradation. […] Fibroblast cell cultures were treated with either IE, DHE or EV for 72 hours at which time the amount of collagen mRNA present in the cells was determined.

TNF-α [9] = assay: LPS-induced TNF-α production in monocytes; type: cell-based
Description: as §5

[10] = system: HAS-2 (Hyaluronic acid synthase-2); assay: HAS-2 mRNA in fibroblasts by RT-PCR; type: cell-based, human; details: 72 hours
Description: (§7) The presently claimed and disclosed inventive concept(s) further contemplates use of various DHE, IE and EV compositions and salts, esters, ethers, and derivatives thereof to mitigate the effects of aging on the skin. For all aging studies, normal human fibroblast cell cultures were used. These cells normally produce collagen, elastin and hyaluronic acid. As the skin ages, the fibroblasts in the dermis lose their ability to produce these three key components of skin, and the skin consequently loses elasticity, thickness and smooth texture. In addition, as fibroblasts age, they increase the expression of certain enzymes that destroy collagen and elastin. There are about 13 of these enzymes, collectively referred to as MMPs (matrix metalloproteinases). One of the principal MMPs, MMP-1, is responsible for collagen degradation. For experiments herein to determine the effects of DHE, IE and EV on collagen, elastin and hyaluronic acid, fibroblasts were treated with the compounds for 72 hours, mRNA was then isolated, and analyzed for abundance by RT-PCR (Reverse transcriptase-Polymerase Chain Reaction).
DHE, IE and EV, are also shown herein to stimulate mRNA for HAS-2. HAS-2 (Hyaluronic acid synthase-2) is the enzyme that manufactures hyaluronic acid (HA) in the skin. HA is a glycosaminoglycan important for maintaining moisture and suppleness in the skin. […] As the skin ages, the production of HA decreases and this causes the skin to sag and become thin.

PGE-2 [11] = assay: IL-1-induced PGE-2 production in fibroblasts (ELISA); type: cell-based, human; details: Fibroblasts (IL-1); 100 uM
Procedure: as §1, with “Cells were either not induced or induced with UVB radiation to stimulate cytokine/PGE-2 production.” left out
as §4

TNF-α [12] = assay: TPA-induced TNF-α production in keratinocytes (ELISA); type: cell-based, human
Procedure: as §1, §2
Inflammatory mediators produced in the skin contribute to the development and propagation of such diseases as rosacea, psoriasis and atopic dermatitis. While many inflammatory mediators are involved in these diseases, TNF-α is known to be a major cytokine involved in psoriasis. For atopic dermatitis, TNF-α, IL-8, and MCP-1 are important mediators of inflammation in these diseases. DHE is effective in suppressing the TPA-induced (TPA is tetradecanolyl phorbol ester) production of TNF-α by approximately 50% at a 100 micromolar concentration (results shown in FIG. 3).
as §3

IL-8 [13] = assay: UV-induced IL-8 production in fibroblasts (ELISA); type: cell-based, human; details: 100 uM
Procedure: as §1, §4

IL-6 [14] = assay: TPA-induced IL-6 production in keratinocytes (ELISA); type: cell-based, human; details: 100 uM
IL-8 [15] = assay: UV-induced IL-8 production in keratinocytes (ELISA); type: cell-based, human; details: 100 uM
Procedure: as §1, §2, §3

IL-6 [16] = assay: UV-induced IL-6 production in fibroblasts (ELISA); type: cell-based, human; details: 100 uM
Procedure: as §1, §4

PGE-2 [17] = assay: UV-induced PGE-2 production in fibroblasts (ELISA); type: cell-based, human
Procedure: as §1
As is shown in FIG. 1, UV radiation (UVR) treatment of fibroblasts results in a 6 fold increase in PGE-2.
as §4

elastin mRNA = assay: Elastin mRNA in human dermal fibroblasts by RT-PCR; type: cell-based; details: 72 hours
Description: as §6, with “In addition, as fibroblasts age, they increase the expression of certain enzymes that destroy collagen and elastin.” left out, “The image is from an electrophoresis gel of DNA amplified by PCR from fibroblast mRNA. This gel was analyzed and” for “Fibroblast cell cultures were treated with either IE, DHE or EV for 72 hours at which time”, “density” for “amount”, “each band quantified by image analysis software.” for “collagen mRNA present in the cells was determined.”

IL-8 [18] = assay: TNF-α-induced IL-8 production in monocytes; type: cell-based; details: 100 uM
Description: as §5

MCP-1 [19] = assay: TNF-α-induced MCP-1 production in monocytes; type: cell-based; details: 100 uM
Description: as §5

TNF-α [20] = assay: UV-induced TNF-α production in keratinocytes (ELISA); type: cell-based, human; details: 100 uM
Procedure: as §1, §2, §3

IL-12 [21] = assay: TNF-α-induced IL-12 production in monocytes; type: cell-based; details: 100 uM
Description: as §5

MCP-1 [22] = assay: LPS-induced MCP-1 production in monocytes; type: cell-based
Description: as §5

TIMP-1 = TIMP-1 mRNA in fibroblasts by PCR; type: cell-based, human
Description: as §7
Fibroblasts in the skin not only produce enzymes (MMPs) that destroy the skin matrix but they also produce proteins (Tissue Inhibitors of Metalloproteinases, i.e., TIMPS) that inhibit these enzymes. There are several TIMPs, but one that is most important for inhibiting MMPs is TIMP-1. […] Shown in FIG. 11 is PCR data showing the up-regulation of TIMP-1 mRNA by these compounds.

[23] = monocytes, LPS-induced (FIG. 4)

CCCc1ccc(O)c(OC)c1 [DHE, dihydroeugenol]
Percent Inhibition of IL-8 (IL-8 [1]): 45%
Percent Inhibition of IL-6 (IL-6 [2]): 30%
Percent Inhibition of PGE2 (PGE2 [3]; Keratinocytes (UV), 100 uM): 68%
inhibition of UVR-induced production of PGE-2 (PGE2 [3]; human keratinocytes, 50 uM): over 60%
Percent Inhibition of IL-6 (IL-6 [4]): 47%
Percent Inhibition of PGE2 (PGE2 [5]): 77%
Percent Inhibition of IL-8 (IL-8 [6]): 46%
Percent Inhibition of IL-8 (IL-8 [7]; Monocytes (LPS), 100 uM): 70%
production of the chemokine IL-8 (IL-8 [7]; [23]): can inhibit the production
Percent Inhibition of IL-12 (IL-12 [8]): 66%
collagen production (collagen mRNA) (collagen 1 mRNA): stimulation
Percent Inhibition of TNF-α (TNF-α [9]; Monocytes (LPS), 100 uM): 78%
production of the cytokine TNF-α (TNF-α [9]; [23]): can inhibit the production
mRNA for HAS-2 [10]: stimulate
Percent Inhibition of PGE-2 (PGE-2 [11]): 86%
Percent Inhibition of TNF-α (TNF-α [12]; Keratinocytes (TPA), 100 uM): 12%
suppression of TPA-induced production of TNF-α (TNF-α [12]; keratinocytes (FIG. 3), 100 micromolar): approximately 50%
Percent Inhibition of IL-8 (IL-8 [13]): 11%
Percent Inhibition of IL-6 (IL-6 [14]): 30%
Percent Inhibition of IL-8 (IL-8 [15]): 40%
Percent Inhibition of IL-6 (IL-6 [16]): 49%
Percent Inhibition of PGE-2 (PGE-2 [17]; Fibroblasts (UV), 100 uM): 67%
UVR induction of PGE-2 (PGE-2 [17]; human fibroblasts, 10 micromolar in culture media after irradiation, 24 hours): completely blocked
elastin levels (elastin mRNA) (elastin mRNA): increase
Percent Inhibition of IL-8 (IL-8 [18]): 72%
Percent Inhibition of MCP-1 (MCP-1 [19]): 46%
Percent Inhibition of TNF-α (TNF-α [20]): 31%
Percent Inhibition of IL-12 (IL-12 [21]): 98%
Percent Inhibition of MCP-1 (MCP-1 [22]; Monocytes (LPS), 100 uM): 60%
production of the chemokine MCP-1 (MCP-1 [22]; [23]): can inhibit the production
production of TIMP-1 (TIMP-1 mRNA) (TIMP-1): significantly stimulate
